The values below come from paper PMC6934455, “Molecular Dynamics model of peptide-protein conjugation: case study of covalent complex between Sos1 peptide and N-terminal SH3 domain from Grb2” (Scientific Reports, 2019).

The structures appear in SMILES notation.

The assay addresses T1, C32S Grb2 N-SH3 (Homo sapiens, UniProt P62993, C32S).
T1 construct: encoding residues 2–59 of human Grb2; His6 (N); host or cells: E. coli Rosetta DE3 (Novagen)
Kind of assay: 1HN,15N-HSQC NMR titration, noncovalent binding.

T1 sequence (P62993 2-59 C32S): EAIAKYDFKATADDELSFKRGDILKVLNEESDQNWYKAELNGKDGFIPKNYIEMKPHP
Text: For quantitative analysis, we have selected a group of 8 well-resolved peaks showing substantial titration effects. The two-dimensional HSQC titration data for these peaks have been fitted using the program TITAN[39] on per-residue basis, as well as collectively (illustrated in Fig. 1D; for complete summary see Fig. S1).
pET-28 vectors for Grb2 N-SH3 (WT and C32S) encoding residues 2–59 of human Grb2 have been purchased from GenScript. The protein additionally containing N-terminal His6-tag was expressed in Rosetta DE3 cells (Novagen) using minimal M9 media. ^15N-NH4Cl and ^13C-glucose supplements have been used for isotope labeling. Protein expression was induced when OD600 reached 0.8. After 16 hours of incubation at 37 °C, cells were harvested, suspended in the standard lysis buffer (containing 2 mM of DTT) and then homogenized by SPEX SamplePrep 6870 Freezer/Mill followed by three rounds of sonication on ice. The sample was purified using Ni-affinity and size-exclusion chromatography (columns GE HisTrap HP and GE Sephacryl S-200 HR).
All measurements were conducted at 25 °C using 500 MHz Bruker Avance III spectrometer equipped with TBI room temperature probe. […] The buffer additionally contained 150 mM NaCl.
The peptide concentration was incremented from 0 to 160 μM in a step of 20 μM and then brought to 240 μM. […] The results were analyzed using the program TITAN[39].

Broadly, the Kd is the equilibrium constant for the complex coming apart. Higher therefore signals lower affinity. Take `CC(C)[C@H](N)C(=O)N1CCC[C@H]1C(=O)N1CCC[C@H]1C(=O)N1CCC[C@H]1C(=O)N[C@H](C(=O)N1CCC[C@H]1C(=O)N1CCC[C@H]1C(=O)N[C@@H](CCCNC(=N)N)C(=O)N[C@@H](CCCNC(=N)N)C(=O)N[C@@H](CCCNC(=N)N)C(=O)N[C@@H](CCCCNC(=O)CCl)C(=O)O)C(C)C` [Sos1-X′]: the Kd is 4.9 µM.
